Where two headings read alike, the source gives them in different places.
Key:
Human CDK12 wt/CycK = Human CDK12 wt/CycK (Homo sapiens (Human), UniProt Q9NYV4); experiment: Radiometric protein kinase assay (33PanQinase Activity Assay), CDK12; assay type: biochemical; settings: for CDK7/CDK12: ratio of CDK7 IC50 to CDK12 IC50, greater than 1 indicates selectivity for CDK12
Summary of the method: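 Radiometric 33P assay: ATP, test compound (in 10% DMSO) and premixed substrate/enzyme incubated 60 min at 30 °C, stopped with 2% H3PO4. 33Pi incorporation counted by scintillation; least-squares curve fit.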

A673 cells [1] = experiment: A673 cytotoxic potency shift in the presence of MLN4924 (cyclin K degrader activity); assay type: cell-based; settings: for Cyclin K Degrader Activity (A673 potency shift + MLN4924): 30 nM MLN4924, 72 hours; for Change of cytotoxic potency in the presence of MLN4924: 72 hours, presence and absence of 30 nM MLN4924
Protocol: Inhibition of cell viability by test compounds was assessed in A673 cells (ATCC CRL-1598) and the compound mode of action was attributed to a “molecular-glue”/cyclin K-degradation mechanism by probing for a loss of compound potency in the presence of the NEDD8-activating enzyme inhibitor, MLN4924.
Cells were plated in 96-well plates at a density of […] viable cells per well in 200 μL fully supplemented growth medium (DMEM+10% heat inactivated foetal bovine serum) and incubated for 24 hours in standard tissue culture conditions. Compounds, including MLN4924, were solubilised in DMSO and then diluted in fully supplemented growth medium at 2× their final assay concentration such that the final DMSO concentration was 0.1%. Growth medium in the assay plates was replaced with 50 μL of growth medium containing 2×MLN4924 (final assay concentration: 30 nM, where tested) or vehicle only and 50 μL of growth medium containing a 2× compound concentration series or vehicle only such that each compound was at 1× final assay concentration in 100 μL.
Cells were then incubated for 72 hours in standard tissue culture conditions before viability was assessed using 50 μL Cell Titer Glo reagent (Promega) per well and luminescence measured on an EnVision plate reader. Data were normalised to vehicle control (100%) and cells treated with 0.1% Triton x-100 for 1 hour before viability measurement (0%; full cell kill). IC50 values were determined using a semi-logistic curve fit with parameters “top” fixed at 100% and “bottom” at or below 0%. Viability curves generated in the presence of MLN4924 were normalised and fixed to controls treated with MLN4924.

A673 cells [2] = experiment: Cytotoxicity in A673 cells (Cell Titer Glo viability); assay type: cell-based; settings: for Ratio of Biochemical Potency:Cellular Potency: CDK12 IC50 / A673 IC50; for IC50: Homo sapiens
Summary of the method: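 Cells plated at 1.2×10^5 per well in DMEM+10% FBS, 24 h, then compound series ± MLN4924 (30 nM final) in 0.1% DMSO for 72 h. Viability by Cell Titer Glo luminescence, normalised to vehicle (100%) and 0.1% Triton x-100 (0%); MLN4924 curves normalised to MLN4924-treated controls.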

Cyclin K = Cyclin K (Homo sapiens (Human), UniProt O75909); experiment: Western blotting analysis of Cyclin K depletion in cell culture; assay type: cell-based; settings: A673 cells, 1 μM test compound, 2 hours, absence and presence of 10 μM MLN4924
Protocol: A673 cells were incubated for 2 hours with of 1 μM compound in presence or in absence of 10 μM of the NAE (NEDD8 activating enzyme) inhibitor MLN4924 (Cell Signalling Technologies). Cells were washed 2× with cold Phosphate Buffered Saline (PBS, Sigma Aldrich), followed by the addition of lysis buffer for 15 minutes on ice before harvesting and centrifugation.
Protein content in the cell lysate was assessed by BCA assay (Thermo Fisher). Samples were then prepared with 4× Laemmlli Buffer (Bio-Rad) and heated to 95° C. for 5 minutes. Each sample was loaded onto a Mini-PROTEAN TGX Stain Free Gel (Bio-Rad) at 50 μg protein/well. SDS-PAGE was performed and then protein was transferred onto a PVDF membrane using a Trans-Blot® Turbo™ Midi PVDF Transfer Pack (Bio-Rad. Membranes were blocked in TBS-T (Invitrogen), 5% (w/v) milk powder (Marvel) overnight at 4° C.
Membranes were incubated with anti-CCNK antibody (rabbit) primary antibody (Abcam) and anti-GAPDH antibody (rabbit) in TBS-T for 2 hours. Membranes were then washed three times with TBS-T, before incubation secondary goat anti-rabbit HRP antibody (Cell Signalling Technologies) followed by 3× washing in TBS-T. Blots were imaged using a Chemidoc imager (Bio-Rad). Cyclin K depletion was measured as the observable drop in band intensity in compound treated samples relative to proteasome-inhibitor treated samples.
Cyclin K degradation was evaluated by Western blotting for cyclin K in A673 cells exposed to 1 μM test compound for 2 hours in the absence and presence of 10 μM MLN4924 (to inhibit proteosome activity).

Human CDK7/CycH/MAT1 = Human CDK7/CycH/MAT1 (Homo sapiens (Human), UniProt P50613); experiment: Radiometric protein kinase assay (33PanQinase Activity Assay), CDK7; assay type: biochemical; settings: ATP 3 μM
Human CDK7/CycH/MAT1, sequence (P50613 whole entry): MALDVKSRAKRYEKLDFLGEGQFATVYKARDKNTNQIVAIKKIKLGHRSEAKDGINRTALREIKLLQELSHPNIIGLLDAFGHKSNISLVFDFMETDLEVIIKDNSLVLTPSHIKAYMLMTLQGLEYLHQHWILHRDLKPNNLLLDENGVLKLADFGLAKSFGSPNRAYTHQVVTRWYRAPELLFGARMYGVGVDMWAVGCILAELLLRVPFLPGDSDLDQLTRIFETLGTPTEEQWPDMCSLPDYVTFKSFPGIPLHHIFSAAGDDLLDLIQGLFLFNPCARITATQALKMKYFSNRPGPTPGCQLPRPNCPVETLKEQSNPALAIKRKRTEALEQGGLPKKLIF
Human CDK7/CycH/MAT1, sequence (P51946 whole entry partner): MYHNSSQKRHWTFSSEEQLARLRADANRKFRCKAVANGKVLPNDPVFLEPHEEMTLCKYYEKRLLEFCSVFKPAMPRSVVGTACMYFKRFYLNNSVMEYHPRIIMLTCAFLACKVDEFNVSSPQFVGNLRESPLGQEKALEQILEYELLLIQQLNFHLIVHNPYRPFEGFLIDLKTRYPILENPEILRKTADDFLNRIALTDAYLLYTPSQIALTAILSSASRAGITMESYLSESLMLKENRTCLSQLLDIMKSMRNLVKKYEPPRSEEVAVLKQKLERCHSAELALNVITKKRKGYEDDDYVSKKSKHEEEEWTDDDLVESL
Human CDK7/CycH/MAT1, sequence (P51948 whole entry partner): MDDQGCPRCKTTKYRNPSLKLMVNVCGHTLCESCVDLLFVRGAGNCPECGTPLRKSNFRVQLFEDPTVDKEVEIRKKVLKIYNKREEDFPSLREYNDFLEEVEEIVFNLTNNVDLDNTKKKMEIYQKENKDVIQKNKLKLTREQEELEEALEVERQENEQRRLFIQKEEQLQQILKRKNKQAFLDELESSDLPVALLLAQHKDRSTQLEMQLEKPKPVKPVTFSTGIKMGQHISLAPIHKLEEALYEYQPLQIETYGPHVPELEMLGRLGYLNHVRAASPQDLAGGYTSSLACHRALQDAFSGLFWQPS

[3] = ATP 0.3 μM, read-out: CDK12 IC50
[4] = read-out: CKD12 Biochemical Potency IC50
[5] = A673, read-out: Cellular Potency IC50 (nM) (in A673 cells)
[6] = A673 cells, 72 hours, read-out: A673 IC50

Human CDK12 wt/CycK, sequence (Q9NYV4 whole entry): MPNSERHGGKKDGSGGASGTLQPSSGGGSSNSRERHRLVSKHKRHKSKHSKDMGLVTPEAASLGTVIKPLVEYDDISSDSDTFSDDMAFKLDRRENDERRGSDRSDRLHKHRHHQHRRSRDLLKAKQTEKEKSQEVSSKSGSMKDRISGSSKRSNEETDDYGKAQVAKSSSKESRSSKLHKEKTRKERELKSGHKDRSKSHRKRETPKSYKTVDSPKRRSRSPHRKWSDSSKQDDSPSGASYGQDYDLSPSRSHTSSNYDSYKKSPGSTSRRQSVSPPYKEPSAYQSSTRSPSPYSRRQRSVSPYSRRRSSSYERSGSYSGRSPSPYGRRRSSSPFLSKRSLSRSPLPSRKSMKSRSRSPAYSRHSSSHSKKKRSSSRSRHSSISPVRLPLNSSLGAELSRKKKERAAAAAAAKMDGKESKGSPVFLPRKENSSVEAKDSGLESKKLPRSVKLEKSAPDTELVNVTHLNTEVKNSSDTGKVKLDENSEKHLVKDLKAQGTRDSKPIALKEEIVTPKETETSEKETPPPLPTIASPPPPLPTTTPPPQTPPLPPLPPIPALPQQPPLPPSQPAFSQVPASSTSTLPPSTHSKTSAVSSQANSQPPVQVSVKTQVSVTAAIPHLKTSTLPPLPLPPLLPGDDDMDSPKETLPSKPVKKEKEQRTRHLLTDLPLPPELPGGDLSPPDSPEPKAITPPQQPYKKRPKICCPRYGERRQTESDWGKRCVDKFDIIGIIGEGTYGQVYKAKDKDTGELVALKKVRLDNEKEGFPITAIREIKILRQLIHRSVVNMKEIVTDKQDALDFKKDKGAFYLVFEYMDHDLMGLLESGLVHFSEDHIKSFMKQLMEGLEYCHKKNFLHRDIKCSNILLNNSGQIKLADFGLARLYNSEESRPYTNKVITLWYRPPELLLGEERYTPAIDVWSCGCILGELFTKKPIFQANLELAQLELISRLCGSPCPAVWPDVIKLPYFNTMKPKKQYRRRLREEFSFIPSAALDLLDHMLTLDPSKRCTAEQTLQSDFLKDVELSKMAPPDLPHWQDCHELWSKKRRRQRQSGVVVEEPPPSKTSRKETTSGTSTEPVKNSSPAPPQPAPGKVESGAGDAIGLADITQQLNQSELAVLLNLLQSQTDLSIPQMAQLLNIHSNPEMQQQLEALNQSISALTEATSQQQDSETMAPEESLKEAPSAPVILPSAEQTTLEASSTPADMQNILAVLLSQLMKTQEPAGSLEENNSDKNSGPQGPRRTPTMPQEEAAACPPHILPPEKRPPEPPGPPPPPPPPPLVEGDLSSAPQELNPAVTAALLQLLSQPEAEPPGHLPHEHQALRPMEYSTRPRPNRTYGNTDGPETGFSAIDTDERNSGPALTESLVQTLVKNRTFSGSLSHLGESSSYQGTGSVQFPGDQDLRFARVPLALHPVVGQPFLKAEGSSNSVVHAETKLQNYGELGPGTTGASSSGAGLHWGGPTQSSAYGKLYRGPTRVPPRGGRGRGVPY
Human CDK12 wt/CycK, sequence (O75909 whole entry partner): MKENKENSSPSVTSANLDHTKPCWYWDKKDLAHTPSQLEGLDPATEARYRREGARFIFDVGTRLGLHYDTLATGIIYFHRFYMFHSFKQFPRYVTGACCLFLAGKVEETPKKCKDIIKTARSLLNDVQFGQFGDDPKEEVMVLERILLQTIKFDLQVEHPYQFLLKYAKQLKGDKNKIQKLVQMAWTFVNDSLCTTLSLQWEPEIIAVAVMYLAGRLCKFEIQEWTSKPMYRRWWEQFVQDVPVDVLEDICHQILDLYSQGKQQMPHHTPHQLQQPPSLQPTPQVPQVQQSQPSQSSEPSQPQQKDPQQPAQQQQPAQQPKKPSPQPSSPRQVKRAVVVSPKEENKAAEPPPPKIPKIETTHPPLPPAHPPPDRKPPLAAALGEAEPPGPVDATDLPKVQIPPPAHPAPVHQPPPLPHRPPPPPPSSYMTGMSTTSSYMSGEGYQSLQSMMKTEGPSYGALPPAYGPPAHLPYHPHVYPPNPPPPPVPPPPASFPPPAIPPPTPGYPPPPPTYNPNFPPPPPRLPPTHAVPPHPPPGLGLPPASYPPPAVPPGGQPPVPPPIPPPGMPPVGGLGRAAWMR

Row | IC50 (Human CDK12 wt/CycK; [3]) | CDK7/CDK12 (Human CDK12 wt/CycK) | IC50 (Human CDK12 wt/CycK; [4]) | IC50 (Human CDK7/CycH/MAT1) | SMILES | Cyclin K Degrader Activity (A673 potency shift + MLN4924) (A673 cells [1]) | Change of cytotoxic potency in the presence of MLN4924 (A673 cells [1]) | Ratio of Biochemical Potency:Cellular Potency (A673 cells [2]) | IC50 (A673 cells [2]; [5]) | IC50 (A673 cells [2]; [6]) | Cyclin K degradation by Western blotting (Cyclin K)
1 | 0.034 µM | 3.3 | 0.034 µM | 0.112 µM | CCc1cnn2c(NCc3ccc(-c4ccccn4)cc3)cc(NC[C@H]3CCNC[C@@H]3O)nc12 [PPA-005, (3R,4R)-4-(((3-ethyl-7-((4-(pyridin-2-yl)benzyl)amino)pyrazolo[1,5-a]pyrimidin-5-yl)amino)methyl)piperidin-3-ol] | ++ (>2 and ≤5 fold change.) | a significant decrease in cytotoxic potency | 30.91 | 1.1 nM | 1.1 nM | found to degrade Cyclin K
2 |  |  |  |  | CC[C@H](CO)Nc1nc(NCc2ccc(-c3ccccn3)cc2)c2ncn(C(C)C)c2n1 [CR8, reference compound] |  | a decrease in potency |  | 84.5 nM | 84.5 nM | did cause proteosomal dependent degradation of Cyclin K
3 | 0.051 µM | 6.1 | 0.051 µM | 0.312 µM | O[C@H]1CNCC[C@@H]1CNc1cc(NCc2ccc(-c3ccccn3)cc2)n2ncc(C3CC3)c2n1 [PPA-006] | +++ (>5 fold change.) | a significant decrease in cytotoxic potency | 14.57 | 3.5 nM | 3.5 nM | found to degrade Cyclin K
4 |  |  | 0.16 µM |  | CN(C)C/C=C/C(=O)Nc1ccc(C(=O)N2CCC[C@@H](Nc3ncc(Cl)c(-c4c[nH]c5ccccc45)n3)C2)cc1 [THZ-531, reference compound] | − (≤1 fold change.) |  | 0.74 | 210 nM |  | no protesomal dependent Cyclin K degradation
5 | 0.06 µM | 12.7 | 0.06 µM | 0.762 µM | C1=C(c2cc(NCc3ccc(-c4ccccn4)cc3)n3ncc(C4CC4)c3n2)CNCC1 [PPA-088] | +++ (>5 fold change.) |  | 24.00 | 2.5 nM | 2.5 nM | 
6 | 0.04 µM | 38.8 | 0.04 µM | 1.55 µM | N#Cc1cnn2c(NCc3ccc(-c4ccccc4)cc3F)cc(N[C@H]3CCNC3)nc12 [PPA-071] | +++ (>5 fold change.) |  | 28.57 | 1.4 nM | 1.4 nM | 
7 | 0.743 µM | 9.3 | 0.743 µM | 6.92 µM | c1ccc(-c2ccc(CNc3cc(NCC4CCNCC4)nc4c(C5CC5)cnn34)cc2)nc1 [PPA-040] | +++ (>5 fold change.) |  | 36.78 | 20.2 nM | 20.2 nM | 
8 | 0.029 µM | 9.8 | 0.029 µM | 0.284 µM | c1ccc(-c2ccc(CNc3cc(O[C@H]4CCNC4)nc4c(C5CC5)cnn34)cc2)nc1 [PPA-065] | +++ (>5 fold change.) |  | 9.06 | 3.2 nM | 3.2 nM | 
9 | 0.158 µM | 4.0 | 0.158 µM | 0.637 µM | O[C@H]1CNCC[C@@H]1CNc1cc(NCc2ccc(-c3ccccc3)cc2)n2ncc(C3CC3)c2n1 [PPA-059] | +++ (>5 fold change.) |  | 12.54 | 12.6 nM | 12.6 nM | 
10 | 0.031 µM | 28.8 | 0.031 µM | 0.892 µM | c1ccc(-c2ccc(CNc3cc(NC4CNC4)nc4c(C5CC5)cnn34)cc2)nc1 [PPA-047] | ++ (>2 and ≤5 fold change.) |  | 1.79 | 17.3 nM | 17.3 nM | 
11 | 0.134 µM | 17.8 | 0.134 µM | 2.39 µM | c1ccc(-c2ccc(CNc3cc(OCC4CNC4)nc4c(C5CC5)cnn34)cc2)nc1 [PPA-055] | ++ (>2 and ≤5 fold change.) |  | 5.38 | 24.9 nM | 24.9 nM | 
12 | 0.028 µM | 8.9 | 0.028 µM | 0.25 µM | c1ccc(-c2ccc(CNc3cc(N[C@H]4CCNC4)nc4c(C5CC5)cnn34)cc2)nc1 [PPA-037] | +++ (>5 fold change.) |  | 40.00 | 0.7 nM | 0.7 nM | 
13 | 0.055 µM | 3.9 | 0.055 µM | 0.212 µM | O[C@H]1CNCC[C@@H]1CNc1cc(NCc2ccc(-n3cccn3)cc2)n2ncc(C3CC3)c2n1 [PPA-009] | ++ (>2 and ≤5 fold change.) |  | 42.31 | 1.3 nM | 1.3 nM | 
14 | 0.122 µM | 2.2 | 0.122 µM | 0.267 µM | CCc1cnn2c(NCc3ccc(-c4ccccc4)cc3F)cc(NC[C@H]3CCNC[C@@H]3O)nc12 [PPA-069] | ++ (>2 and ≤5 fold change.) |  | 11.62 | 10.5 nM | 10.5 nM | 
15 | 0.099 µM | 3.1 | 0.099 µM | 0.311 µM | O[C@H]1CNCC[C@@H]1CNc1cc(NCc2ccc(-c3ccccn3)cc2F)n2ncc(C3CC3)c2n1 [PPA-020] | +++ (>5 fold change.) |  | 30.00 | 3.3 nM | 3.3 nM | 
16 | 0.028 µM | 9.8 | 0.028 µM | 0.274 µM | c1cnc(-c2ccc(CNc3cc(N[C@H]4CCCNC4)nc4c(C5CC5)cnn34)cc2)nc1 [PPA-089] | +++ (>5 fold change.) |  | 14.74 | 1.9 nM | 3.4 nM | 

Row | SMILES | IC50 (Human CDK12 wt/CycK; [3]) | CDK7/CDK12 (Human CDK12 wt/CycK) | IC50 (Human CDK12 wt/CycK; [4]) | IC50 (Human CDK7/CycH/MAT1) | Cyclin K Degrader Activity (A673 potency shift + MLN4924) (A673 cells [1]) | Change of cytotoxic potency in the presence of MLN4924 (A673 cells [1]) | Ratio of Biochemical Potency:Cellular Potency (A673 cells [2]) | IC50 (A673 cells [2]; [5]) | IC50 (A673 cells [2]; [6]) | Cyclin K degradation by Western blotting (Cyclin K)
17 | c1ccc(-c2ccc(CNc3cc(N4CC5CC(C4)N5)nc4c(C5CC5)cnn34)cc2)nc1 [PPA-080] | 0.152 µM | 8.0 | 0.152 µM | 1.21 µM | +++ (>5 fold change.) |  | 12.06 | 12.6 nM | 12.6 nM | 

— patent publication US20240383900A1, “SUBSTITUTED PYRAZOLO [1,5-A]PYRIMIDINE-7-AMINE COMPOUNDS AS CDK INHIBITORS AND THEIR THERAPEUTIC USE” (Carrick Therapeutics Limited, priority 2021, published 2024)
